For six compounds, MIC results are on record in DBAASP.

Among the test systems are Candida tropicalis; Staphylococcus aureus; Candida albicans; Acinetobacter baumannii; Candida glabrata; Pseudomonas aeruginosa; Klebsiella pneumoniae; Candida krusei ATCC 6258; Escherichia coli ML-35p; Escherichia coli C600; Methylobacterium sp.; Xanthomonas citri.
What all share (assay): ≥ marks a high value that may be exact or a test limit, other limits are often not marked, values filed in µg/mL are converted to µM
Assay [1] concerns Pseudomonas aeruginosa ATCC 10662.
The subject of assay [2] is Staphylococcus aureus ATCC 25923.
Assay [3] relates to Bacillus subtilis ATCC 6051.
Assay [4] concerns Klebsiella pneumoniae ATCC BAA-2146.
In assay [5] the test system is Klebsiella pneumoniae ATCC 700603.
Assay [6] relates to Staphylococcus aureus ATCC 43300.
Assay [7] deals with Klebsiella pneumoniae ATCC 13883.
In assay [8] the test system is Escherichia coli ATCC 25922.
Assay [9] relates to Candida albicans ATCC 90028.
The test system of assay [10] is Pseudomonas aeruginosa ATCC 27853.
The subject of assay [11] is Cryptococcus neoformans ATCC 208821.
For assay [12], the system named is Acinetobacter baumannii ATCC 19606.
Assay [13] deals with Enterococcus faecalis ATCC 4028.
Assay [14] deals with Staphylococcus epidermidis ATCC 12228.
In assay [15] the test system is Enterobacter cloacae ATCC 13047.
For assay [16], the system named is Staphylococcus aureus ATCC 29213.
The test system of assay [17] is Candida glabrata ATCC 90030.
Assay [18] concerns Escherichia coli BL21(DE3).
Assay [19] relates to Pseudomonas aeruginosa PAO1.
In assay [20] the test system is Bacillus subtilis VKM B-886.
Assay [21] deals with Bacillus megaterium VKM41.
For assay [22], the system named is Staphylococcus aureus 209P.
For assay [23], the system named is Micrococcus luteus VKM B-1314.
The test system of assay [24] is Acinetobacter baumannii B2367-12.
Assay [25] relates to Staphylococcus aureus USA 300.
For assay [26], the system named is Enterobacter cloacae B2366-12.
The subject of assay [27] is Enterococcus faecium ATCC 51559.
Assay [28] deals with Agrobacterium tumefaciens GV3101.
In assay [29] the test system is Sinorhizobium meliloti USDA 1002.

The structures appear in SMILES notation. In brackets after ≈: the same amount, converted by molar mass. Bounds are passed on as bounds.

What is called MIC is the smallest concentration in the dilution series that meets the test's criterion for growth inhibition. A lower MIC goes with a more susceptible organism. As to `CC[C@H](C)[C@H](NC(=O)[C@H](C)NC(=O)[C@H](CCCCN)NC(=O)[C@H](C)NC(=O)CNC(=O)[C@H](CCCN=C(N)N)NC(=O)[C@H](CC(C)C)NC(=O)[C@H](CC(C)C)NC(=O)[C@H](CO)NC(=O)[C@H](CCCN=C(N)N)NC(=O)[C@H](CC(C)C)NC(=O)[C@@H](N)Cc1ccccc1)C(=O)N[C@@H](Cc1ccc(O)cc1)C(=O)N[C@@H](CCCN=C(N)N)C(=O)NCC(=O)N[C@@H](C)C(=O)N[C@@H](CCCN=C(N)N)C(=O)N[C@@H](C)C(=O)NCC(=O)N[C@@H](Cc1c[nH]c2ccccc12)C(=O)N[C@@H](CCCN=C(N)N)C(=O)NCC(N)=O` [FLRSLLRGAKAIYRGARAGWRG], the MIC turned out to be 15.1 µM (≈ 37.5 µg/mL) in assay [1]; 2.67 µM (≈ 6.62 µg/mL) with Candida tropicalis; 1.89 µM (≈ 4.68 µg/mL) with Staphylococcus aureus; 1.89 µM (≈ 4.68 µg/mL) in [2]; 2.67 µM (≈ 6.62 µg/mL) in the assay on Candida albicans; 7.27 µM (≈ 18 µg/mL) against Acinetobacter baumannii. In addition, the MIC against Candida glabrata is at least 60.6 µM.

As to `CC[C@H](C)[C@@H]1NC(=O)CNC(=O)[C@H](CCCN=C(N)N)NC(=O)[C@H](Cc2ccc(O)cc2)NC(=O)[C@@H](NC(=O)[C@@H](NC(=O)[C@H](CCCN=C(N)N)NC(=O)[C@H](Cc2ccccc2)NC(=O)[C@H](CO)NC(=O)[C@H](Cc2c[nH]c3ccccc23)NC(=O)[C@@H](N)CCCCN)C(C)C)CSSC[C@@H](C(=O)N[C@@H](Cc2ccc(O)cc2)C(=O)N[C@@H](CCCN=C(N)N)C(=O)N[C@@H](CCCN=C(N)N)C(=O)N[C@@H](C)C(=O)N[C@@H](CCCN=C(N)N)C(=O)O)NC1=O` [KWSFRVCYRGICYRRAR], the MIC in assay [3] was 0.0563 µM (≈ 0.125 µg/mL); in [4], 0.45 µM (≈ 0.999 µg/mL); in [5], 0.901 µM (≈ 2 µg/mL); in [6], 1.8 µM (≈ 4 µg/mL); in assay [7], 0.45 µM (≈ 0.999 µg/mL); in [8] it was 0.113 µM (≈ 0.25 µg/mL). Further, the MIC against Pseudomonas aeruginosa was 1.8 µM (≈ 4 µg/mL); in [9], 1.8 µM (≈ 4 µg/mL); in the assay on Klebsiella pneumoniae, 7.21 µM (≈ 16 µg/mL); in assay [10], 0.45 µM (≈ 0.999 µg/mL); in assay [11] it was 0.113 µM (≈ 0.25 µg/mL); in the assay with Acinetobacter baumannii it was 0.113 µM (≈ 0.25 µg/mL). In assay [12], this compound returned an MIC of 0.113 µM (≈ 0.25 µg/mL).

For the compound `CC[C@H](C)[C@H](NC(=O)[C@H](CC(C)C)NC(=O)[C@H](CCCCN)NC(=O)[C@H](CCCCN)NC(=O)[C@@H](NC(=O)[C@H](CC(C)C)NC(=O)[C@H](CO)NC(=O)[C@@H]1CCCN1C(=O)[C@@H](NC(=O)[C@H](CC(C)C)NC(=O)[C@H](CO)NC(=O)[C@H](Cc1ccccc1)NC(=O)[C@@H](N)Cc1ccccc1)[C@@H](C)CC)C(C)C)C(=O)N[C@@H](CCCCN)C(=O)N[C@@H](C)C(=O)N[C@@H](Cc1ccccc1)C(=O)N[C@@H](CCCCN)C(N)=O` [FFSLIPSLVKKLIKAFK], the MIC in assay [13] worked out at 4.7 µM (≈ 9.3 µg/mL); against Candida krusei ATCC 6258, 9.4 µM (≈ 18.6 µg/mL); in [14], 2.3 µM (≈ 4.55 µg/mL); in assay [8], 2.3 µM (≈ 4.55 µg/mL); in assay [15] it was 18.8 µM (≈ 37.2 µg/mL); in assay [9], 9.4 µM (≈ 18.6 µg/mL). In addition, the MIC in [10] amounted to 4.7 µM (≈ 9.3 µg/mL); in assay [16] it was 1.2 µM (≈ 2.37 µg/mL); in assay [17], 9.4 µM (≈ 18.6 µg/mL).

For `CC[C@H](C)[C@H](N)C(=O)N[C@@H](CCCCN)C(=O)N[C@@H](CC(N)=O)C(=O)N[C@@H](C)C(=O)N[C@@H](CCCCN)C(=O)N[C@H](C(=O)N[C@H]1CSSC[C@@H](C(=O)N[C@H](C(=O)N[C@@H](CO)C(=O)N[C@@H](Cc2cnc[nH]2)C(=O)N[C@@H](CCCCN)C(=O)O)C(C)C)NC(=O)[C@H](C(C)C)NC(=O)[C@H](C)NC(=O)[C@H](Cc2ccc(O)cc2)NC(=O)[C@H](C(C)C)NC1=O)C(C)C` [IKNAKVCVYAVCVSHK], the MIC in assay [18] was at least 64 µM; against Escherichia coli ML-35p, at least 64 µM; in assay [19] it was above 128 µM; in [20] it was 16 µM (≈ 28.2 µg/mL); in assay [21], 16 µM (≈ 28.2 µg/mL); in assay [22], 16 µM (≈ 28.2 µg/mL). In addition, the MIC with Escherichia coli C600 was at least 64 µM; in assay [16], above 128 µM; in assay [23] it was 16 µM (≈ 28.2 µg/mL); in the assay with Acinetobacter baumannii, at least 64 µM.

For the compound `CC(C)C[C@H](NC(=O)[C@H](CC(N)=O)NC(=O)[C@H](CCCN=C(N)N)NC(=O)[C@@H](CC(C)C)NC(=O)[C@H](Cc1ccccc1)NC(=O)[C@H](CC(=O)O)NC(=O)[C@H](CCCCN)NC(=O)[C@@H](CC(C)C)NC(=O)[C@H](CCCN=C(N)N)NC(=O)[C@H](CCC(N)=O)NC(=O)[C@@H](NC(=O)[C@@H](CC(C)C)NC(=O)[C@H](CCCN=C(N)N)NC(=O)[C@H](CCCCN)NC(=O)[C@H](Cc1ccccc1)NC(=O)CN)C(C)C)C(=O)N[C@H](C(N)=O)C(C)C` [GFKRLVQRLKDFLRNLV], the MIC in [24] was 8.8 µM (≈ 18.5 µg/mL); in assay [25] it was at least 100 µM; in [19] it was 100 µM (≈ 210 µg/mL); in [7] it was at least 100 µM; in assay [26], 25 µM (≈ 52.5 µg/mL); in [27] it was at least 100 µM.

As to `CC[C@H](C)[C@H](N)C(=O)N[C@@H](CCC(=O)O)C(=O)N[C@H](C(=O)N[C@@H](Cc1ccccc1)C(=O)N[C@@H](CC(C)C)C(=O)N[C@@H](CCCCN)C(=O)N[C@@H](CCC(N)=O)C(=O)N[C@@H](CC(C)C)C(=O)N[C@@H](CCCN=C(N)N)C(=O)N[C@@H](CO)C(=O)N[C@@H](C)C(=O)N[C@@H](C)C(=O)N[C@@H](CC(N)=O)C(=O)N[C@@H](CCCCN)C(=O)N[C@H](C(=O)N[C@H](C(=O)NCC(=O)N[C@@H](CC(C)C)C(=O)O)C(C)C)[C@@H](C)CC)[C@@H](C)O` [IETFLKQLRSAANKIVGL], the minimal inhibitory concentration (MIC) is at least 64 µM in assay [28], at least 64 µM with Methylobacterium sp., at least 32 µM in the assay on Xanthomonas citri and at least 64 µM in assay [29].
